Test results from the supplement of paper PMC12420376.

Legend:
KURAMOCHI = assay: drug sensitivity score (DSS2) on cancer cell count; higher = more sensitive; extreme values may be limits of the assay; conditions: 72 h
Summary of the method: (§1)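 Cancer cell counts came from 10× images (4 fields) of fixed cells immunostained for CK8/18 with Hoechst. The ovarian cancer cells had been grown alone or in 1:1 direct co-culture with lung or skin fibroblasts on 384-well plates pre-spotted acoustically with 528 approved and investigational compounds at 5 concentrations, then treated for 72 h. Breeze was used to derive a drug sensitivity score from logistic fits of the data.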

OVCAR8 = assay: as above; conditions: 72 h
Summary of the method: as §1

[1] = co-cultured fibroblast: BJHTERT
[2] = co-cultured fibroblast: none (monoculture)

Compound | drug sensitivity score (KURAMOCHI; [1]) [DSS] | drug sensitivity score (KURAMOCHI; co-cultured fibroblast: WI38) [DSS] | drug sensitivity score (KURAMOCHI; [2]) [DSS] | drug sensitivity score (OVCAR8; [1]) [DSS] | drug sensitivity score (OVCAR8; co-cultured fibroblast: WI38) [DSS] | drug sensitivity score (OVCAR8; [2]) [DSS]
CN(C)C1CCN(C(=O)c2ccc(NC(=O)Nc3ccc(-c4nc(N5CCOCC5)nc(N5CCOCC5)n4)cc3)cc2)CC1 [Gedatolisib] | 16.8 | 16 | 21.3 | 8.7 | 2 | 8.2
COc1cc2ncnc(Nc3ccc(F)c(Cl)c3)c2cc1OCCCN1CCOCC1 [Gefitinib] | 2.9 | 3 | 0 | 5.8 | 0 | 3.7
Nc1ccn([C@@H]2O[C@H](CO)[C@@H](O)C2(F)F)c(=O)n1 [Gemcitabine] | 18.4 | 25.2 | 26.7 | 29.5 | 27.2 | 26.3
CCc1nc(C(N)=O)c(Nc2ccc(N3CCC(N4CCN(C)CC4)CC3)c(OC)c2)nc1NC1CCOCC1 [Gilteritinib] | 0.4 | 0 | 0 | 1.5 | 0 | 0
CCN(CC)Cc1ccc2cc(COC(=O)Nc3ccc(C(=O)NO)cc3)ccc2c1 [Givinostat] | 8.6 | 7.4 | 6.1 | 14.9 | 8.5 | 8.8
CN1CC[C@@H](NC(=O)Nc2ccc(C#N)cc2)C[C@@H]1c1nc2ccccc2[nH]1 [Glasdegib] | 0.5 | 1.1 | 0 | 0 | 0 | 0
COCCNCc1ccc(-c2cc3nccc(Oc4ccc(NC(=S)NC(=O)Cc5ccc(F)cc5)cc4F)c3s2)nc1 [Glesatinib] | 2.7 | 1.6 | 2.3 | 0 | 3.5 | 0
CN1CCN(C2CCN(C(=O)Nc3cc(Oc4ccc(NC(=O)C5(C(=O)Nc6ccc(F)cc6)CC5)c(F)c4)ccn3)CC2)CC1 [Golvatinib] | 0 | 0 | 0 | 0 | 0 | 0
CC(C)C[C@H](NC(=O)[C@@H](COC(C)(C)C)NC(=O)[C@H](Cc1ccc(O)cc1)NC(=O)[C@H](CO)NC(=O)[C@H](Cc1c[nH]c2ccccc12)NC(=O)[C@H](Cc1cnc[nH]1)NC(=O)[C@@H]1CCC(=O)N1)C(=O)N[C@@H](CCCNC(=N)N)C(=O)N1CCC[C@H]1C(=O)NNC(N)=O [Goserelin] | 0 | 0 | 0 | 0 | 0 | 0
O=S(=O)(c1cccc2c(O)nccc12)N1CCCNCC1 [Hydroxyfasudil] | 0 | 1 | 2 | 0 | 1.2 | 0
NC(=O)NO [Hydroxyurea] | 5.9 | 7.3 | 6.3 | 1.8 | 7.3 | 7.7
COc1cc2c(cc1-c1c(C)noc1C)ncc1[nH]c(=O)n([C@H](C)c3ccccn3)c12 [I-BET151] | 9.5 | 9.4 | 6.3 | 14.1 | 4 | 15.9
O=C(O)c1ccc(O)c2ncccc12 [IOX-1] | 3.6 | 5.9 | 5.5 | 3.4 | 0.7 | 4.8
O=C(O)CNC(=O)c1c(O)c2ccccc2n(Cc2ccccc2)c1=O [IOX-2] | 0.4 | 0 | 1.3 | 0 | 0 | 0.5
C=CC(=O)N1CCC[C@@H](n2nc(-c3ccc(Oc4ccccc4)cc3)c3c(N)ncnc32)C1 [Ibrutinib] | 3.1 | 3 | 0 | 1.1 | 0 | 0
C#Cc1cccc(Nc2ncnc3cc4c(cc23)OCCOCCOCCO4)c1 [Icotinib] | 0 | 0.2 | 9.7 | 0.1 | 0 | 0
CC(=O)[C@]1(O)Cc2c(O)c3c(c(O)c2[C@@H](O[C@H]2C[C@H](N)[C@H](O)[C@H](C)O2)C1)C(=O)c1ccccc1C3=O [Idarubicin] | 14.5 | 14.4 | 27.8 | 17.6 | 19.3 | 22.1
COc1cc(C(=O)O)ccc1NC(=O)[C@@H]1N[C@@H](CC(C)(C)C)[C@](C#N)(c2ccc(Cl)cc2F)[C@H]1c1cccc(Cl)c1F [Idasanutlin] | 0 | 1.1 | 0 | 1.3 | 4.2 | 0
CC[C@H](Nc1ncnc2[nH]cnc12)c1nc2cccc(F)c2c(=O)n1-c1ccccc1 [Idelalisib] | 10.9 | 5.5 | 3.9 | 2.9 | 0 | 0.3
CC(C)Cn1cnc2c(N)nc3ccccc3c21 [Imiquimod] | 0 | 0.1 | 13.4 | 0.4 | 0 | 2.8
O=C(Nc1ccncc1)C(=O)c1cn(Cc2ccc(Cl)cc2)c2ccccc12 [Indibulin] | 13.1 | 17.2 | 19.5 | 11 | 26.6 | 21.2
CCN1CCN(c2ccc(Nc3cc(N(C)C(=O)Nc4c(Cl)c(OC)cc(OC)c4Cl)ncn3)cc2)CC1 [Infigratinib] | 0 | 0 | 0 | 0 | 0 | 0
CC(C)NC[C@@H](C(=O)N1CCN(c2ncnc3c2[C@H](C)C[C@H]3O)CC1)c1ccc(Cl)cc1 [Ipatasertib] | 1.5 | 0.5 | 0 | 1.9 | 0 | 1.9
CCC(C)n1ncn(-c2ccc(N3CCN(c4ccc(OCC5COC(Cn6cncn6)(c6ccc(Cl)cc6Cl)O5)cc4)CC3)cc2)c1=O (configuration not stated) [Itraconazole] | 0 | 0 | 0 | 1 | 11.5 | 0.1
N#Cc1ccnc(N2C(=O)CC[C@H]2C(=O)N(c2cncc(F)c2)[C@H](C(=O)NC2CC(F)(F)C2)c2ccccc2Cl)c1 [Ivosidenib] | 0 | 0 | 0 | 2.1 | 0.3 | 0.2
C/C(=C\c1csc(C)n1)[C@@H]1C[C@@H]2O[C@]2(C)CCC[C@H](C)[C@H](O)[C@@H](C)C(=O)C(C)(C)[C@@H](O)CC(=O)N1 [Ixabepilone] | 4.9 | 4.6 | 0.8 | 5.8 | 5.6 | 3.6

Compound | drug sensitivity score (KURAMOCHI; [1]) [DSS] | drug sensitivity score (KURAMOCHI; co-cultured fibroblast: WI38) [DSS] | drug sensitivity score (KURAMOCHI; [2]) [DSS] | drug sensitivity score (OVCAR8; [1]) [DSS] | drug sensitivity score (OVCAR8; co-cultured fibroblast: WI38) [DSS] | drug sensitivity score (OVCAR8; [2]) [DSS]
CC(C)C[C@H](NC(=O)CNC(=O)c1cc(Cl)ccc1Cl)B(O)O [Ixazomib] | 1 | 11.6 | 7.6 | 1.8 | 8.7 | 11.3
CC(C)NC(=O)COc1cccc(-c2nc(Nc3ccc4[nH]ncc4c3)c3ccccc3n2)c1 [KD025] | 1.2 | 1.3 | 0 | 5 | 8.3 | 0.3
CS(=O)(=O)CCNCc1ccc(-c2ccc3ncnc(Nc4ccc(OCc5cccc(F)c5)c(Cl)c4)c3c2)o1 [Lapatinib] | 9.2 | 6.8 | 0 | 0.7 | 0 | 0
O=C(Nc1cnn2ccc(N3CCC[C@@H]3c3cc(F)ccc3F)nc12)N1CC[C@H](O)C1 [Larotrectinib] | 0 | 0 | 0 | 0.2 | 1.6 | 0
Oc1ccc2c(c1)CC[C@H](c1ccccc1)[C@@H]2c1ccc(OCCN2CCCC2)cc1 [Lasofoxifene] | 0 | 0 | 0 | 0 | 5.5 | 0
Nc1cccc2c1CN(C1CCC(=O)NC1=O)C2=O (configuration not stated) [Lenalidomide] | 0.1 | 2.6 | 10.7 | 0 | 0 | 1.8
COc1cc2nccc(Oc3ccc(NC(=O)NC4CC4)c(Cl)c3)c2cc1C(N)=O [Lenvatinib] | 0.2 | 0 | 0 | 0 | 0 | 0.7
N#Cc1ccc(C(c2ccc(C#N)cc2)n2cncn2)cc1 [Letrozole] | 0 | 0 | 0 | 0 | 0 | 0
Cc1ccc(F)c(NC(=O)Nc2ccc(-c3cccc4[nH]nc(N)c34)cc2)c1 [Linifanib] | 0 | 0 | 0 | 0 | 0 | 0.5
C[C@]1(O)C[C@@H](c2nc(-c3ccc4ccc(-c5ccccc5)nc4c3)c3c(N)nccn32)C1 [Linsitinib] | 0 | 0 | 0 | 0 | 0 | 1.7
CCNCCS(=O)(=O)NC[C@@]1(c2ccccc2)SC(NC(=O)C(C)(C)C)=NN1C(=O)C(C)(C)C [Litronesib] | 19.2 | 22.8 | 12.2 | 27.8 | 28.8 | 27
Nc1nc(OCc2cc(Br)cs2)c2[nH]cnc2n1 [Lomeguatrib] | 0 | 0 | 0 | 0 | 0.8 | 0
NC(=O)N1CCC(CC(=O)N2CCC([C@H]3c4ncc(Br)cc4CCc4cc(Cl)cc(Br)c43)CC2)CC1 [Lonafarnib] | 13 | 13.9 | 13.2 | 14.5 | 4.9 | 10.3
Cc1c(F)cc(C(=O)NC2CC2)cc1-c1ccc(C(=O)NCC(C)(C)C)cn1 [Losmapimod] | 2.4 | 0 | 0 | 0.7 | 0 | 1.5
CC[C@H](C)C(=O)O[C@H]1C[C@@H](C)C=C2C=C[C@H](C)[C@H](CC[C@@H]3C[C@@H](O)CC(=O)O3)[C@H]21 [Lovastatin] | 0.3 | 3.4 | 5.4 | 1.7 | 8.4 | 2.1
CNC(=O)c1cccc2cc(Oc3ccnc4cc(OCC5(N)CC5)c(OC)cc34)ccc12 [Lucitanib] | 4.3 | 4.3 | 2.4 | 3.3 | 6 | 3.4
CCNC(=O)c1noc(-c2cc(C(C)C)c(O)cc2O)c1-c1ccc(CN2CCOCC2)cc1 [Luminespib] | 19.7 | 20.9 | 22.9 | 28.3 | 29.8 | 29.9
O=C(O)CC[C@H]1CC[C@@](c2cc(F)ccc2F)(S(=O)(=O)c2ccc(Cl)cc2)CC1 [MK-0752] | 0 | 0 | 0 | 3.7 | 0 | 0
NC1(c2ccc(-c3nc4ccn5c(=O)[nH]nc5c4cc3-c3ccccc3)cc2)CCC1 [MK-2206] | 5.8 | 1.4 | 16.1 | 0.2 | 0 | 0.3
O=C(c1cccc(Cl)c1F)N1CCN(Cc2cccc(Nc3nccs3)n2)CC1 [MK-8745] | 11.8 | 14.3 | 13.4 | 12.5 | 14.3 | 13.9
Cn1cc(-c2cnn3c(N)c(Br)c([C@@H]4CCCNC4)nc23)cn1 [MK-8776] | 1.2 | 0 | 1.6 | 7.8 | 0.2 | 0
Cc1cnc(-c2ccccc2C(C)C)nc1NCc1ccc(-n2ccnn2)cc1 [ML323] | 0 | 1.3 | 1.9 | 2.9 | 0 | 3.8
O=C(CCNC(=O)c1ccc(OC(F)(F)F)cc1)N[C@@H]1CCCc2ccccc21 [ML390] | 3.4 | 2.9 | 4 | 8.5 | 0 | 8.1
O=C(Nc1cccc(NC(=O)c2cccc(O)c2O)c1)c1cccc(O)c1O [MST-312] | 12 | 9.8 | 15.1 | 10.9 | 15.4 | 18.1
CNC(=O)[C@@H](NC(=O)[C@H](CC(C)C)[C@H](O)C(=O)NO)C(C)(C)C [Marimastat] | 0 | 0 | 0 | 0.2 | 1.4 | 0.7
Cc1ccc(NC(=O)c2ccc(CN3CCN(C)CC3)cc2)cc1Nc1nc(-c2cccnc2)cs1 [Masitinib] | 2 | 1.6 | 0 | 3.9 | 0.2 | 0.2
